Data on 1 substance can be found in PMC3555145 (Biomacromolecules, 2012).

The subject of this test is Raw 264.7 and HeLa cells. The settings on record: rhodamine-labeled polypeptide, n = 3.

Turning to “poly(ethylene glycol)-block-poly(O-pentenyl-L-serine-graft-cysteamine) [PEG112-b-(PPELS70-g-CA)]”, where the note is “2 μg/well”, the “time of maximal cell uptake level post polypeptide treatment” value is recorded as 2 h. The “dependence of cell uptake level on incubation time and feeding amount” value (0.5-5 μg/well for 2 h, 2 μg/well for 0.4-4 h) was “increased with incubation time and the feeding amount”.
